What follows are compounds tested against T1, C5AR1 (Homo sapiens, UniProt P21730) (assay: hC5a DISCO IC50 assay (PathHunter beta-arrestin, antagonist mode)). Conditions: CHO-K1 C5AR1 beta-arrestin cell line; antagonist vs 1-10 nM C5a agonist; geometric mean values; read-out: C5aR IC50.
T1 construct: host or cells: CHO-K1
T1 sequence (P21730 1-350): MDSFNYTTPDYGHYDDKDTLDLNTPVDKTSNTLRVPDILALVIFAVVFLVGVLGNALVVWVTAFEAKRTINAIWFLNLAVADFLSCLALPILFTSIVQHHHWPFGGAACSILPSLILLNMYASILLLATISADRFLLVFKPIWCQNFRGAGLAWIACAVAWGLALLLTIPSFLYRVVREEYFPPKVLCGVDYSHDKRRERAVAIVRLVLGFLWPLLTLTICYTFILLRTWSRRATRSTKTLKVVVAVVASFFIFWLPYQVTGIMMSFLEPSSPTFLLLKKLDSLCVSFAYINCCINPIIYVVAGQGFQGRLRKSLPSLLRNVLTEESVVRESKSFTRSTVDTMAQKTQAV
Format: cell-based
Procedure, shortened: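 Antagonist added first, then 1-10 nM C5a agonist; cells incubated 1.5 h at 37 °C. Beta-arrestin signal developed with PathHunter detection reagent, 45 min at RT. IC50 in nmol/l from serial antagonist dilutions, reported as geometric mean of several measurements.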
With `Cc1cccc(F)c1N1CC[C@@H](n2c(=O)n(Cc3ccccc3C(F)(F)F)c3c(OC4CCN(C(=O)OC(C)(C)C)CC4)nccc32)C1` [Example 122, 4-[1-[(R)-1-(2-Fluoro-6-methyl-phenyl)-pyrrolidin-3-yl]-2-oxo-3-(2-trifluoromethyl-benzyl)-2,3-dihydro-1H-imidazo[4,5-c]pyridin-4-yloxy]-piperidine-1-carboxylic acid tert-butyl ester] the IC50 was 509 nM.
Compound `Cc1cccc(F)c1N1CC[C@@H](n2c(=O)n(Cc3ccccc3C(F)(F)F)c3c(N(C)CCO)nccc32)C1` [Example 123, 1-[(R)-1-(2-Fluoro-6-methyl-phenyl)-pyrrolidin-3-yl]-4-[(2-hydroxy-ethyl)-methyl-amino]-3-(2-trifluoromethyl-benzyl)-1,3-dihydro-imidazo[4,5-c]pyridin-2-one] has an IC50 of 42 nM.
`Cc1cccc(F)c1N1CC[C@@H](n2c(=O)n(Cc3ccccc3C(F)(F)F)c3c(OC4CCNCC4)nccc32)C1` [Example 124, 1-[(R)-1-(2-Fluoro-6-methyl-phenyl)-pyrrolidin-3-yl]-4-(piperidin-4-yloxy)-3-(2-trifluoromethyl-benzyl)-1,3-dihydro-imidazo[4,5-c]pyridin-2-one] showed an IC50 of 5220 nM.
`Cc1cccc(F)c1N1CC[C@@H](n2c(=O)n(Cc3ccccc3C(F)(F)F)c3c(OCC4COC(C)(C)O4)nccc32)C1` (stereo partly drawn) [Example 125, 4-(2,2-Dimethyl-[1,3]dioxolan-4-ylmethoxy)-1-[(R)-1-(2-fluoro-6-methyl-phenyl)-pyrrolidin-3-yl]-3-(2-trifluoromethyl-benzyl)-1,3-dihydro-imidazo[4,5-c]pyridin-2-one] gave an IC50 of 124 nM.
Compound `COc1cccc2c1n(Cc1ccccc1C(F)(F)F)c(=O)n2[C@@H]1CCN(c2c(F)cccc2CC=O)C1` [Example 126, (3-Fluoro-2-{(R)-3-[4-methoxy-2-oxo-3-(2-trifluoromethyl-benzyl)-2,3-dihydro-benzoimidazol-1-yl]-pyrrolidin-1-yl}-phenyl)-acetaldehyde] has an IC50 of 20 nM.
`Cc1cccc(F)c1N1CC[C@@H](n2c(=O)n(Cc3ccccc3C(F)(F)F)c3c(OC4COC4)nccc32)C1` [Example 127, 1-[(R)-1-(2-Fluoro-6-methyl-phenyl)-pyrrolidin-3-yl]-4-(oxetan-3-yloxy)-3-(2-trifluoromethyl-benzyl)-1,3-dihydro-imidazo[4,5-c]pyridin-2-one] gave an IC50 of 17 nM.
Work on `Cc1cccc(F)c1N1CC[C@@H](n2c(=O)n(Cc3ccccc3C(F)(F)F)c3c(OCC(O)CO)nccc32)C1` (stereo partly drawn) [Example 128, 4-(2,3-Dihydroxy-propoxy)-1-[(R)-1-(2-fluoro-6-methyl-phenyl)-pyrrolidin-3-yl]-3-(2-trifluoromethyl-benzyl)-1,3-dihydro-imidazo[4,5-c]pyridin-2-one] yielded an IC50 of 207 nM.
Compound `Cc1cccc(F)c1N1CC[C@@H](n2c(=O)n(Cc3ccccc3C(F)(F)F)c3c(N4CCOCC4)nccc32)C1` [Example 129, 1-[(R)-1-(2-Fluoro-6-methyl-phenyl)-pyrrolidin-3-yl]-4-morpholin-4-yl-3-(2-trifluoromethyl-benzyl)-1,3-dihydro-imidazo[4,5-c]pyridin-2-one] has an IC50 of 53 nM.
In the case of `Cc1cccc(F)c1N1CC[C@@H](n2c(=O)n(Cc3ccccc3C(F)(F)F)c3c(OC4CCN(C)C4)nccc32)C1` (stereo partly drawn) [Example 130, 1-[(R)-1-(2-Fluoro-6-methyl-phenyl)-pyrrolidin-3-yl]-4-(1-methyl-pyrrolidin-3-yloxy)-3-(2-trifluoromethyl-benzyl)-1,3-dihydro-imidazo[4,5-c]pyridin-2-one], the IC50 is reported as 3910 nM.
With `COc1cccc2c1n(Cc1ccccc1C(F)(F)F)c(=O)n2[C@@H]1CCN(c2c(F)cccc2CCN2CCOCC2)C1` [Example 131, 1-{(R)-1-[2-Fluoro-6-(2-morpholin-4-yl-ethyl)-phenyl]-pyrrolidin-3-yl}-4-methoxy-3-(2-trifluoromethyl-benzyl)-1,3-dihydro-benzoimidazol-2-one] the IC50 was 53 nM.
`COc1cccc2c1n(Cc1ccccc1C(F)(F)F)c(=O)n2[C@@H]1CCN(c2c(F)cccc2CN2CCN(C)CC2)C1` [Example 132, 1-{(R)-1-[2-Fluoro-6-(4-methyl-piperazin-1-ylmethyl)-phenyl]-pyrrolidin-3-yl}-4-methoxy-3-(2-trifluoromethyl-benzyl)-1,3-dihydro-benzoimidazol-2-one] gave an IC50 of 314 nM.
`COc1cccc2c1n(Cc1ccccc1C(F)(F)F)c(=O)n2[C@@H]1CCN(c2c(F)cccc2CN2CCCCC2)C1` [Example 133, 1-[(R)-1-(2-Fluoro-6-piperidin-1-ylmethyl-phenyl)-pyrrolidin-3-yl]-4-methoxy-3-(2-trifluoromethyl-benzyl)-1,3-dihydro-benzoimidazol-2-one] showed an IC50 of 70 nM.
For `COc1cccc2c1n(Cc1ccccc1C(F)(F)F)c(=O)n2[C@@H]1CCN(c2c(F)cccc2CN2CCC(O)CC2)C1` [Example 134, 1-{(R)-1-[2-Fluoro-6-(4-hydroxy-piperidin-1-ylmethyl)-phenyl]-pyrrolidin-3-yl}-4-methoxy-3-(2-trifluoromethyl-benzyl)-1,3-dihydro-benzoimidazol-2-one], the IC50 was 2260 nM.
Work on `COc1cccc2c1n(Cc1ccccc1C(F)(F)F)c(=O)n2[C@@H]1CCN(c2c(F)cccc2CN2CCNCC2)C1` [Example 135, 1-[(R)-1-(2-Fluoro-6-piperazin-1-ylmethyl-phenyl)-pyrrolidin-3-yl]-4-methoxy-3-(2-trifluoromethyl-benzyl)-1,3-dihydro-benzoimidazol-2-one] yielded an IC50 of 5760 nM.
For `COc1cccc2c1n(Cc1ccccc1C(F)(F)F)c(=O)n2[C@@H]1CCN(c2c(F)cccc2CN2CCC(N(C)C)CC2)C1` [Example 136, 1-{(R)-1-[2-(4-Dimethylamino-piperidin-1-ylmethyl)-6-fluoro-phenyl]-pyrrolidin-3-yl}-4-methoxy-3-(2-trifluoromethyl-benzyl)-1,3-dihydro-benzoimidazol-2-one], the IC50 was 1590 nM.
Work on `COc1cccc2c1n(Cc1ccccc1C(F)(F)F)c(=O)n2[C@@H]1CCN(c2c(F)cccc2CN2CCC(OC)CC2)C1` [Example 137, 1-{(R)-1-[2-Fluoro-6-(4-methoxy-piperidin-1-ylmethyl)-phenyl]-pyrrolidin-3-yl}-4-methoxy-3-(2-trifluoromethyl-benzyl)-1,3-dihydro-benzoimidazol-2-one] yielded an IC50 of 133 nM.
`COc1cccc2c1n(Cc1ccccc1C(F)(F)F)c(=O)n2[C@@H]1CCN(c2c(F)cccc2CN2CCC(OC)C2)C1` (stereo partly drawn) [Example 138, 1-{(R)-1-[2-Fluoro-6-(3-methoxy-pyrrolidin-1-ylmethyl)-phenyl]-pyrrolidin-3-yl}-4-methoxy-3-(2-trifluoromethyl-benzyl)-1,3-dihydro-benzoimidazol-2-one] was tested, and the IC50 was 156 nM.
`COCCN(C)Cc1cccc(F)c1N1CC[C@@H](n2c(=O)n(Cc3ccccc3C(F)(F)F)c3c(OC)cccc32)C1` [Example 139, 1-[(R)-1-(2-Fluoro-6-{[(2-methoxy-ethyl)-methyl-amino]-methyl}-phenyl)-pyrrolidin-3-yl]-4-methoxy-3-(2-trifluoromethyl-benzyl)-1,3-dihydro-benzoimidazol-2-one] was tested, and the IC50 was 227 nM.
In the case of `CCN(CCO)Cc1cccc(F)c1N1CC[C@@H](n2c(=O)n(Cc3ccccc3C(F)(F)F)c3c(OC)cccc32)C1` [Example 140, 1-[(R)-1-(2-{[Ethyl-(2-hydroxy-ethyl)-amino]-methyl}-6-fluoro-phenyl)-pyrrolidin-3-yl]-4-methoxy-3-(2-trifluoromethyl-benzyl)-1,3-dihydro-benzoimidazol-2-one], the IC50 is reported as 1030 nM.
Work on `COc1cccc2c1n(Cc1ccccc1C(F)(F)F)c(=O)n2[C@@H]1CCN(c2c(F)cccc2CN(CCO)CCO)C1` [Example 141, 1-[(R)-1-(2-{[Bis-(2-hydroxy-ethyl)-amino]-methyl}-6-fluoro-phenyl)-pyrrolidin-3-yl]-4-methoxy-3-(2-trifluoromethyl-benzyl)-1,3-dihydro-benzoimidazol-2-one] yielded an IC50 of 2130 nM.
`COCC(C)NCc1cccc(F)c1N1CC[C@@H](n2c(=O)n(Cc3ccccc3C(F)(F)F)c3c(OC)cccc32)C1` (stereo partly drawn) [Example 142, 1-((R)-1-{2-Fluoro-6-[(2-methoxy-1-methyl-ethylamino)-methyl]-phenyl}-pyrrolidin-3-yl)-4-methoxy-3-(2-trifluoromethyl-benzyl)-1,3-dihydro-benzoimidazol-2-one] gave an IC50 of 108 nM.
`COc1cccc2c1n(Cc1ccccc1C(F)(F)F)c(=O)n2[C@@H]1CCN(c2c(F)cccc2CN2CC(OC)C2)C1` [Example 143, 1-{(R)-1-[2-Fluoro-6-(3-methoxy-azetidin-1-ylmethyl)-phenyl]-pyrrolidin-3-yl}-4-methoxy-3-(2-trifluoromethyl-benzyl)-1,3-dihydro-benzoimidazol-2-one] showed an IC50 of 108 nM.
With `COc1cccc2c1n(Cc1ccccc1C(F)(F)F)c(=O)n2C1CCN(C(=O)OC(C)(C)C)C(C)C1` (stereo not drawn) [Example 144, 4-[4-Methoxy-2-oxo-3-(2-trifluoromethyl-benzyl)-2,3-dihydro-benzoimidazol-1-yl]-2-methyl-piperidine-1-carboxylic acid tert-butyl ester] the IC50 was 312 nM.
Work on `COc1cccc2c1n(Cc1ccccc1C(F)(F)F)c(=O)n2C1CCN(c2c(F)cccc2C=O)C(C)C1` (stereo not drawn) [Example 145, 3-Fluoro-2-{4-[4-methoxy-2-oxo-3-(2-trifluoromethyl-benzyl)-2,3-dihydro-benzoimidazol-1-yl]-2-methyl-piperidin-1-yl}-benzaldehyde] yielded an IC50 of 16 nM.
